According to patent US9828412B2, “Short peptide targeting EPS8 binding with EGFR and use thereof” (SOUTHERN MEDICAL UNIVERSITY, priority 2014, dated 2017):
Where two headings read alike, the source gives them in different places. No end group written: not given here.

Assays:
[1] = system: EPS8 overexpression tumor cell line KG1α (human acute myeloid leukemia cell line)
Protocol: EPS8 overexpression tumor cell line KG1α (human acute myeloid leukemia cell line, purchased from the American Type Culture Collection, ATCC) were selected as target cells, and seeded in 96-well plates at 10,000 cells/well and 100 μL/well. The medium culture was Roswell Park Memorial Institute (RPMI)-1640 containing 10% fetal bovine serum (FBS). […] Then OD values at the wavelength of 490 nm were detected by MTS assay, and KG1α cell viability was calculated.
KG1α cell viability=[(ODexperimental-ODblank control)]/[(ODnegative control-ODblank control)]×100%.

[2] = system: EPS8 overexpression tumor cell line MCF-7 (human breast cancer cell line)
Protocol: EPS8 overexpression tumor cell line MCF-7 (human breast cancer cell line, purchased from ATCC) were selected as target cells, and seeded in 96-well plates at 10,000 cells/well and 100 μL/well. The medium culture was Dulbecco's Modified Eagle's Medium (DMEM) containing 10% FBS. 8 hours later, short peptide P01 was added at different final concentration of 0, 100, 300 and 500 μg/mL. MCF-7 cells were incubated with short peptide P01 for 24 hours, 48 hours and 72 hours. Then OD values at wavelength of 490 nm were detected by MTS assay, and MCF-7 cell viability was calculated.
MCF-7 cell viability=[(ODexperimental-ODblank control)]/[(ODnegative control-ODblank control)]×100%.

IC50 (KG1α cell viability) ([1]; 24 h): 888.5 µg/mL | IC50 (KG1α cell viability) ([1]; 48 h): 413.9 µg/mL | IC50 (KG1α cell viability) ([1]; 72 h): 335.6 µg/mL | IC50 (MCF-7 cell viability) ([2]; 24 h): 594.2 µg/mL | IC50 (MCF-7 cell viability) ([2]; 48 h): 374.9 µg/mL | IC50 (MCF-7 cell viability) ([2]; 72 h): 304.7 µg/mL
Substance: RKKNKPPPPKK-NH2 [P01, N′-Arg-Lys-Lys-Asn-Lys-Pro-Pro-Pro-Pro-Lys-Lys-NH2-C′]
